Our source for the IC50 values is article PMC10375476, “Feedback Inhibition of Bacterial Nucleotidyltransferases by Rare Nucleotide L-Sugars Restricts Substrate Promiscuity” (Journal of the American Chemical Society, 2023).

The target in one experiment is Mtb RmlA (Mycobacterium tuberculosis, UniProt P9WH13). As to the kind of experiment: biochemical.
A further experiment concerns the target Pa RmlA (Pseudomonas aeruginosa, UniProt Q9HU22). As to the kind of experiment: inhibition of reconstituted RmlA activity. It is filed as biochemical.
A further experiment has as its target SALTY RmlA (Salmonella enterica, UniProt P26393). As to the kind of experiment: inhibition of reconstituted RmlA activity. The experiment is classed as biochemical.
Another experiment addresses E. coli RmlA (Escherichia coli, UniProt P37744). As to the kind of experiment: inhibition of reconstituted RmlA activity. It is filed as biochemical.

Structures are written as SMILES.

Chain of Mtb RmlA (P9WH13 whole entry): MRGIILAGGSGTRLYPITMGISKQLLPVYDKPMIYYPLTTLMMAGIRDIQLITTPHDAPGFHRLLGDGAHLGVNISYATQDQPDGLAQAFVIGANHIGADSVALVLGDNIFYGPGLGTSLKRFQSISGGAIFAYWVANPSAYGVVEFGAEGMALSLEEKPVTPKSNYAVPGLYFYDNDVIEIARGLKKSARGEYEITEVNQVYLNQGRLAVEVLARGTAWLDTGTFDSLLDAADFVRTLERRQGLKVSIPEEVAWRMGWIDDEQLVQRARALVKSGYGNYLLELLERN
Chain of E. coli RmlA (P37744 whole entry): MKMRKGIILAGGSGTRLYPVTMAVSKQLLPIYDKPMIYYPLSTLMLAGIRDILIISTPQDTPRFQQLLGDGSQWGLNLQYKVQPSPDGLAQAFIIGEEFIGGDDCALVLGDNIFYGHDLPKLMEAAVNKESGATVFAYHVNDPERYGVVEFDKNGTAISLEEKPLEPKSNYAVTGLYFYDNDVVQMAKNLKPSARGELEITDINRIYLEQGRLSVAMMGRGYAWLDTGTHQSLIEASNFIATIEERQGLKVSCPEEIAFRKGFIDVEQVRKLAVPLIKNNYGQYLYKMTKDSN
Chain of SALTY RmlA (P26393 whole entry): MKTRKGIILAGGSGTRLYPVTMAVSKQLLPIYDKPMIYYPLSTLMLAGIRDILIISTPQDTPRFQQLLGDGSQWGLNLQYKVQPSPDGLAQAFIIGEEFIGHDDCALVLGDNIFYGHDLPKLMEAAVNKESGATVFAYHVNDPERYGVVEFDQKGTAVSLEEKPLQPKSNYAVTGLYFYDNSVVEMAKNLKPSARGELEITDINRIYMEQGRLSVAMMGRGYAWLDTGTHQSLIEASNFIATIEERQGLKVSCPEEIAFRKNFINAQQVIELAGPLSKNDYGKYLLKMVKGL
Chain of Pa RmlA (Q9HU22 1-293): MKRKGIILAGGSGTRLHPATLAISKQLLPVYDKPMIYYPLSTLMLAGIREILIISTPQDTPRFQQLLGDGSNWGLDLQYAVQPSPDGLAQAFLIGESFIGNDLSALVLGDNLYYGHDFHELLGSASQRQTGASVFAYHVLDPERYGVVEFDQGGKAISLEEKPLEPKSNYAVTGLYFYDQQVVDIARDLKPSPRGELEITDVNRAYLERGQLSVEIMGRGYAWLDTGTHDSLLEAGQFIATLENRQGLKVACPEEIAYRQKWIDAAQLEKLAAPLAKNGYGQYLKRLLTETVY

Take `Cc1cn([C@H]2C[C@H](O)[C@@H](COP(=O)(O)OP(=O)(O)O[C@@H]3O[C@@H](C)[C@H](O)[C@@H](O)[C@H]3O)O2)c(=O)[nH]c1=O` [compound 10, dTDP-α-L-Rha (α-anomer 10)]: the IC50 was 500 µM against Mtb RmlA, 250 µM on Pa RmlA, more than 500 µM on SALTY RmlA and more than 500 µM against E. coli RmlA.
With `Cc1cn([C@H]2C[C@H](O)[C@@H](COP(=O)(O)OP(=O)(O)O[C@H]3O[C@@H](CO)[C@H](O)[C@@H](O)[C@H]3O)O2)c(=O)[nH]c1=O` [compound 11, dTDP-β-L-Man], the IC50 was 458 µM against Mtb RmlA, 376 µM on Pa RmlA, more than 500 µM at SALTY RmlA and more than 500 µM against E. coli RmlA.
As for `C[C@@H]1O[C@H](OP(=O)(O)OP(=O)(O)OC[C@H]2O[C@@H](n3ccc(=O)[nH]c3=O)[C@H](O)[C@@H]2O)[C@H](O)[C@H](O)[C@H]1O` [compound 12, UDP-β-L-Rha], the IC50 on Pa RmlA was 362 µM.
Consider `Cc1cn([C@H]2C[C@H](O)[C@@H](COP(=O)(O)OP(=O)(O)O[C@H]3O[C@@H](C)[C@H](O)[C@@H](O)[C@H]3O)O2)c(=O)[nH]c1=O` [compound 1, dTDP-β-L-Rha], for which the IC50 was 65.7 µM against Mtb RmlA, 25.1 µM on Pa RmlA, 109 µM at SALTY RmlA and 137 µM at E. coli RmlA.
For `Cc1cn([C@H]2C[C@H](O)[C@@H](COP(=O)(O)OP(=O)(O)O[C@H]3O[C@@H](C)[C@@H](O)[C@@H](O)[C@H]3O)O2)c(=O)[nH]c1=O` [compound 2, dTDP-β-L-6dTal], at Pa RmlA, half-maximal inhibition (IC50) was put at 312 µM.

A word on the IC50: it is the concentration at which inhibition is half-maximal.
